In article PMC3614091 (Organic & biomolecular chemistry, 2010):

Assays:
PICK1 PDZ domain [1] = molecular target: T1, PICK1 PDZ domain (Rattus norvegicus, UniProt Q9EP80); assay type: binding; conditions: for affinity for PICK1 PDZ domain: at up to 500 µM concentrations (data not shown)
PDZ1 of PSD-95 [2] = molecular target: T2, PDZ1 of PSD-95 (Homo sapiens, UniProt P78352); conditions: PDZ domains from PSD-95; cited from earlier work
PDZ2 of PSD-95 [3] = molecular target: T3, PDZ2 of PSD-95 (Homo sapiens, UniProt P78352); conditions: PDZ domains from PSD-95; cited from earlier work
PDZ3 of PSD-95 [4] = molecular target: T4, PDZ3 of PSD-95 (Homo sapiens, UniProt P78352); conditions: PDZ domains from PSD-95; cited from earlier work
[5] = system: PDZ4-5 of glutamate receptor interacting protein-1 (GRIP1); conditions: PDZ4-5 of GRIP1; cited from earlier work
PICK1 = conditions: biochemical studies; cited from earlier work
[6] = system: AMPA receptor trafficking; conditions: cited from earlier work
hippocampal CA1 neurons = conditions: cited from earlier work
PICK1 PDZ domain [7] = molecular target: T1, PICK1 PDZ domain; conditions: cited from earlier work
PDZ1 of PSD-95 [8] = molecular target: T2, PDZ1 of PSD-95; assay: Fluorescence polarization assay, PSD-95 PDZ1; assay type: binding; conditions: tested at 500 µM (data not shown)
PDZ2 of PSD-95 [9] = molecular target: T3, PDZ2 of PSD-95; assay: Fluorescence polarization assay, PSD-95 PDZ2; assay type: binding; conditions: tested at 500 µM (data not shown)
PDZ3 of PSD-95 [10] = molecular target: T4, PDZ3 of PSD-95; assay: Fluorescence polarization assay, PSD-95 PDZ3; assay type: binding; conditions: tested at 500 µM (data not shown)

T1 sequence (Q9EP80 whole entry, the tested form may be a part): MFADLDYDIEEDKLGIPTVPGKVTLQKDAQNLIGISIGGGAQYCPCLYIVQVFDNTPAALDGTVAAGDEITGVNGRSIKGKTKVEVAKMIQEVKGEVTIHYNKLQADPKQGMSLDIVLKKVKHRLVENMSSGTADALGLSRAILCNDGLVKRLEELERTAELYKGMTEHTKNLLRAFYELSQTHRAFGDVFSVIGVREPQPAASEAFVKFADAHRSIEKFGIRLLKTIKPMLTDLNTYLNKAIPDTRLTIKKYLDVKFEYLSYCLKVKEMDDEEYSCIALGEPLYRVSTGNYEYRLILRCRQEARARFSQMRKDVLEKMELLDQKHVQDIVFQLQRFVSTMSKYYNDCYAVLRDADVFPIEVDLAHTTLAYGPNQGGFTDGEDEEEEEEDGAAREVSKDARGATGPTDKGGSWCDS

Row | Compound | Ki (PICK1 PDZ domain [1]) | affinity for PDZ1 of PSD-95 (PDZ1 of PSD-95 [2]) | affinity for PDZ2 of PSD-95 (PDZ2 of PSD-95 [3]) | affinity for PDZ3 of PSD-95 (PDZ3 of PSD-95 [4]) | affinity for PDZ domains from GRIP1 [5] | reversibility of binding to PICK1 (PICK1) | effect on AMPA receptor trafficking [6] | effect on induction of LTD and LTP (hippocampal CA1 neurons) | binding to PICK1 PDZ domain in living cells (PICK1 PDZ domain [7]; intracellular FRET) | membrane permeability (PICK1 PDZ domain [7]; not told) | affinity for PICK1 PDZ domain (PICK1 PDZ domain [1]) | affinity towards PDZ1 of PSD-95 (PDZ1 of PSD-95 [8]) | affinity towards PDZ2 of PSD-95 (PDZ2 of PSD-95 [9]) | affinity towards PDZ3 of PSD-95 (PDZ3 of PSD-95 [10])
1 | CCOC(=O)NC(=O)/C(C#N)=C/c1ccc(Cl)c(Cl)c1 [Compound 1, (E)-ethyl 2-cyano-3-(3,4-dichlorophenyl)acryloylcarbamate] | 9.6 ± 0.22 µM | no affinity | no affinity | no affinity | no affinity | binds reversibly | affected AMPA receptor trafficking | inhibited induction of LTD and LTP | binds the PICK1 PDZ domain in living cells | membrane permeable | – | – | – | –
2 | CCOC(=O)NC(=O)C(C#N)Cc1ccc(Cl)c(Cl)c1 (centres unmarked) [Compound 3, Ethyl 2-cyano-3-(3,4-dichlorophenyl)propanoylcarbamate] | – | – | – | – | – | – | – | – | – | – | devoid of affinity | none of the compounds showed affinity | none of the compounds showed affinity | none of the compounds showed affinity
3 | CCOC(=O)NC(=O)/C=C/c1ccc(Cl)c(Cl)c1 [Compound 5, (E)-ethyl 3-(3,4-dichlorophenyl)acryloylcarbamate] | – | – | – | – | – | – | – | – | – | – | devoid of affinity | none of the compounds showed affinity | none of the compounds showed affinity | none of the compounds showed affinity
4 | CCCCNC(=O)/C(C#N)=C/c1ccc(Cl)c(Cl)c1 [Compound 8, (E)-N-butyl-2-cyano-3-(3,4-dichlorophenyl)acrylamide] | – | – | – | – | – | – | – | – | – | – | devoid of affinity | none of the compounds showed affinity | none of the compounds showed affinity | none of the compounds showed affinity
5 | CCOC(=O)NC/C(C#N)=C/c1ccc(Cl)c(Cl)c1 [Compound 14, (Z)-ethyl 2-cyano-3-(3,4-dichlorophenyl)allylcarbamate] | – | – | – | – | – | – | – | – | – | – | devoid of affinity | none of the compounds showed affinity | none of the compounds showed affinity | none of the compounds showed affinity
